SMILES strings stand for the structures. Where only a bound is given, the exact number is not on record here.

For 16 molecules, IC50 and GI50 results are on record in patent US12083101B2, “Biaryl derivatives as YAP/TAZ-TEAD protein-protein interaction inhibitors” (Novartis AG, priority 2020, dated 2024).

The subject of test [1] is NCI-H2052 Tet-On shYAP_2371 pLenti6 MCAT_Luc cells (YAP-dependent transcription). In words: YAP reporter gene activity assay (MCAT-luciferase), NCI-H2052. It is filed as cell-based. Conditions: Homo sapiens, NCI-H2052, 24 h, 24 hours incubation, BrightGlo luminescence. A digest of the protocol: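 Luminescence was read 5 min after BrightGlo, following 24 h at 37 °C of compound exposure (eleven 2-fold dilutions, DMSO normalized to 0.1%). Cells were NCI-H2052 with a YAP-responsive MCAT-luciferase and a Tet-inducible shRNA against YAP1 3′UTR. Cell-free background was removed, values were normalized to vehicle, and IC50 was fitted with four parameters.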
For orientation: A reporter such as luciferase makes a cellular process visible.

In test [2] the test system is MKN-45/Ubc-luc cells. In words: Reporter gene specificity control (Ubc-luciferase), MKN-45. The following applies: Homo sapiens, MKN-45, 24 h, read-out: Reporter gene assay MKN-45 IC50 [μM], MKN-45/Ubc-luc cells (YAP deleted, specificity control), 24 hours incubation.
Test [3] deals with MKN-45/Ubc-luc cells. Nature of the test: Proliferation assay (resazurin), MKN-45. The class given is cell-based. Conditions: Homo sapiens, 72 hours incubation.
For test [4], the system named is NCI-H2052 Tet-On shYAP_2371 pLenti6 MCAT_Luc cells. Nature of the test: Proliferation assay (resazurin), NCI-H2052. It is filed as cell-based. Conditions: Homo sapiens, NCI-H2052, 72 h, 72 hours incubation. The procedure, abridged: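 The NCI-H2052 line carries a Tet-inducible shRNA against the YAP1 3′UTR and an MCAT luciferase reporter. The day after seeding, it received eleven 2-fold compound dilutions at 0.1% DMSO, and viability was read by resazurin fluorescence.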

Test [5] has as its target Avi-humanTEAD4 217-434 / Cy5 labeled humanYAP 60-100 (Homo sapiens (Human), UniProt Q15561). Nature of the test: TR-FRET YAP-TEAD4 in-vitro biochemical assay. The following applies: 1 nM Avi-humanTEAD4 217-434, 20 nM Cy5-humanYAP 60-100, 1 h room temperature. The class given is binding.

Sequence of Avi-humanTEAD4 217-434 / Cy5 labeled humanYAP 60-100 (Q15561 217-434): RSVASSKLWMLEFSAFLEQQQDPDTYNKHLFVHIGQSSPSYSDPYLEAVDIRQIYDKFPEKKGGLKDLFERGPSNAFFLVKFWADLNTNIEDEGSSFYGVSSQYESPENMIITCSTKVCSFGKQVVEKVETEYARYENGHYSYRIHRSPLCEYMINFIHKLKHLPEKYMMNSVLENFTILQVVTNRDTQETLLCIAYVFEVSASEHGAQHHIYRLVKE

In general, GI50 refers to the concentration at which growth is held to half of that of the control. Turning to `NC[C@@]1(c2ccccc2)Cc2c(cc(F)c(Cl)c2-c2c(F)cccc2C(N)=O)N1` (atropisomer, axis not shown) [Example 134, 2-((2S,4S)-2-(aminomethyl)-5-chloro-6-fluoro-2-phenylindolin-4-yl)-3-fluorobenzamide], the IC50 in test [1] was 2310 nM; in the test on MKN-45/Ubc-luc cells [2], more than 10 µM; in test [5] it was 74 nM. Besides, the values for the GI50 (with MKN-45/Ubc-luc cells [3]; in test [4]) were more than 10000 nM and 1570 nM, respectively.
For the molecule `NC(=O)c1ccc(OC(F)F)c(F)c1-c1c(Cl)ccc2c1C[C@@](CNC1CCCCC1)(c1ccccc1)O2` (atropisomer, axis not shown) [Example 135, 2-((2S,4S)-5-Chloro-2-((cyclohexylamino)methyl)-2-phenyl-2,3-dihydrobenzofuran-4-yl)-4-(difluoromethoxy)-3-fluorobenzamide], the IC50 in test [1] is 247 nM; with MKN-45/Ubc-luc cells [2] it was more than 10 µM; in test [5], 7 nM. In addition, the figures for the GI50 (in the test on MKN-45/Ubc-luc cells [3]; in test [4]) were 8640 nM and 627 nM, respectively.
For `CNC[C@]1(c2ccccc2)Oc2cc(F)c(Cl)c(-c3c(C(N)=O)ccc(OC)c3F)c2[C@@H]1C` (atropisomer, axis not shown) [Example 144, 2-((2S,3S,4S)-5-Chloro-6-fluoro-3-methyl-2-((methylamino)methyl)-2-phenyl-2,3-dihydrobenzofuran-4-yl)-3-fluoro-4-methoxybenzamide], in that order: 10 nM, more than 8 µM, 2 nM, more than 8000 nM and 10 nM.
With `CNC[C@]1(c2ccccc2)Oc2cc(F)c(Cl)c(-c3c(C(=O)NC)cnc(OCCO)c3F)c2[C@@H]1C` (atropisomer, axis not shown) [Example 145, 4-((2S,3S,4S)-5-Chloro-6-fluoro-3-methyl-2-((methylamino)methyl)-2-phenyl-2,3-dihydrobenzofuran-4-yl)-5-fluoro-6-(2-hydroxyethoxy)-N-methylnicotinamide], the IC50 was 46 nM in test [1], more than 20 µM in the test with MKN-45/Ubc-luc cells [2] and 5 nM in test [5]. In addition, the GI50 with MKN-45/Ubc-luc cells [3] is more than 20000 nM; in test [4], 58 nM.
With `CNC[C@]1(c2ccccc2)Oc2cc(F)c(Cl)c(-c3c(C(N)=O)ccc(OC)c3F)c2[C@@H]1COC` (atropisomer, axis not shown) [Example 146, 2-((2S,3R,4S)-5-Chloro-6-fluoro-3-(methoxymethyl)-2-((methylamino)methyl)-2-phenyl-2,3-dihydrobenzofuran-4-yl)-3-fluoro-4-methoxybenzamide], the IC50 in test [1] was 25 nM; in the test on MKN-45/Ubc-luc cells [2], more than 10 µM; in test [5] it was 3 nM. Moreover, the GI50 in the test with MKN-45/Ubc-luc cells [3] was more than 10000 nM; in test [4], 23 nM.
For `CNC[C@]1(c2ccccc2)Oc2cc(F)c(Cl)c(-c3c(C(N)=O)ccc(OC)c3F)c2[C@@H]1CO` (atropisomer, axis not shown) [Example 147, 2-((2S,3R,4S)-5-Chloro-6-fluoro-3-(hydroxymethyl)-2-((methylamino)methyl)-2-phenyl-2,3-dihydrobenzofuran-4-yl)-3-fluoro-4-methoxybenzamide], the IC50 in test [1] is 11 nM; with MKN-45/Ubc-luc cells [2] it was more than 3.3 µM; in test [5] it was 1 nM. The values for the GI50 (with MKN-45/Ubc-luc cells [3]; in test [4]) were more than 3300 nM and 5 nM, respectively.
As for `C[C@H]1c2c(cc(F)c(Cl)c2-c2c(C(N)=O)ccc(OCC(C)(C)O)c2F)O[C@]1(CN[C@H]1CC[C@](C)(O)CC1)c1ccccc1` (atropisomer, axis not shown) [Example 148, 2-((2S,3S,4S)-5-Chloro-6-fluoro-2-((((trans)-4-hydroxy-4-methylcyclohexyl)amino)methyl)-3-methyl-2-phenyl-2,3-dihydrobenzofuran-4-yl)-3-fluoro-4-(2-hydroxy-2-methylpropoxy)benzamide], the IC50 in test [1] is 54 nM; with MKN-45/Ubc-luc cells [2], more than 20 µM; in test [5], 4 nM. Moreover, the GI50 in the test with MKN-45/Ubc-luc cells [3] was more than 20000 nM; in test [4] it was 53 nM.
In the case of `NC(=O)c1ccc(OCCO)c(F)c1-c1c(Cl)c(F)cc2c1C[C@](c1ccccc1)([C@@H]1CCCN1)O2` (atropisomer, axis not shown) [Example 151, 2-((2S,4S)-5-Chloro-6-fluoro-2-phenyl-2-((S)-pyrrolidin-2-yl)-2,3-dihydrobenzofuran-4-yl)-3-fluoro-4-(2-hydroxyethoxy)benzamide], the IC50 in test [1] was 15 nM; in the test with MKN-45/Ubc-luc cells [2] it was more than 10 µM; in test [5] it was 2 nM. In addition, the GI50 in the test on MKN-45/Ubc-luc cells [3] is more than 10000 nM; in test [4] it was 22 nM.
For `C[C@H](O)COc1ccc(C(N)=O)c(-c2c(Cl)c(F)cc3c2C[C@](c2ccccc2)([C@@H]2CCCN2)O3)c1F` (atropisomer, axis not shown) [Example 152, 2-((2S,4S)-5-Chloro-6-fluoro-2-phenyl-2-((S)-pyrrolidin-2-yl)-2,3-dihydrobenzofuran-4-yl)-3-fluoro-4-((S)-2-hydroxypropoxy)benzamide], in that order: 36 nM, more than 10 µM, 2 nM, more than 10000 nM and 25 nM.
`CNC(=O)c1ccc(OCCO)c(F)c1-c1c(Cl)c(F)cc2c1C[C@](c1ccccc1)([C@@H]1CCCN1)O2` (atropisomer, axis not shown) [Example 153, 2-((2S,4S)-5-Chloro-6-fluoro-2-phenyl-2-((S)-pyrrolidin-2-yl)-2,3-dihydrobenzofuran-4-yl)-3-fluoro-4-(2-hydroxyethoxy)-N-methylbenzamide]: the IC50 in test [1] is 24 nM; in the test on MKN-45/Ubc-luc cells [2] it was more than 10 µM; in test [5], less than 1 nM. Further, the values for the GI50 (in the test on MKN-45/Ubc-luc cells [3]; in test [4]) were more than 10000 nM and 104 nM, respectively.
For `CNC(=O)c1ccc(OC[C@H](C)O)c(F)c1-c1c(Cl)c(F)cc2c1C[C@](c1ccccc1)([C@@H]1CCCN1)O2` (atropisomer, axis not shown) [Example 154, 2-((2S,4S)-5-Chloro-6-fluoro-2-phenyl-2-((S)-pyrrolidin-2-yl)-2,3-dihydrobenzofuran-4-yl)-3-fluoro-4-((S)-2-hydroxypropoxy)-N-methylbenzamide], in that order: 77 nM, more than 10 µM, 8 nM, more than 10000 nM and 59 nM.
For `CNC(=O)c1ccc(OCCO)c(F)c1-c1c(Cl)c(F)cc2c1C[C@](c1ccccc1)([C@@H]1CCCCN1)O2` (atropisomer, axis not shown) [Example 161, 2-((2S,4S)-5-Chloro-6-fluoro-2-phenyl-2-((S)-piperidin-2-yl)-2,3-dihydrobenzofuran-4-yl)-3-fluoro-4-(2-hydroxyethoxy)-N-methylbenzamide], in that order: 174 nM, more than 10 µM, 29 nM, more than 10000 nM and 167 nM.
`NC(=O)c1ccc(OCCO)c(F)c1-c1c(Cl)c(F)cc2c1C[C@](c1ccccc1)([C@@H]1CCCN1)N2` (atropisomer, axis not shown) [Example 170, 2-((2S,4S)-5-Chloro-6-fluoro-2-phenyl-2-((S)-pyrrolidin-2-yl)indolin-4-yl)-3-fluoro-4-(2-hydroxyethoxy)benzamide]: the IC50 in test [1] was 12 nM; in the test on MKN-45/Ubc-luc cells [2], more than 8 µM; in test [5] it was 1 nM. The GI50 in the test on MKN-45/Ubc-luc cells [3] was more than 8000 nM; in test [4] it was 23 nM.
`COc1ccc(C(N)=O)c(-c2c(Cl)c(F)cc3c2C[C@](c2ccccc2)([C@@H]2CCCN2)N3)c1F` (atropisomer, axis not shown) [Example 171, 2-((2S,4S)-5-Chloro-6-fluoro-2-phenyl-2-((S)-pyrrolidin-2-yl)indolin-4-yl)-3-fluoro-4-methoxybenzamide]: the IC50 in test [1] amounted to 116 nM; in the test with MKN-45/Ubc-luc cells [2], 15.5 µM; in test [5] it was 2 nM. Also, the GI50 with MKN-45/Ubc-luc cells [3] came to 13000 nM; in test [4], 73 nM.
With `CNC(=O)c1ccc(OC[C@H](C)O)c(F)c1-c1c(Cl)c(F)cc2c1C[C@](c1ccccc1)([C@@H]1CCCN1)N2` (atropisomer, axis not shown) [Example 172, 2-((2S,4S)-5-Chloro-6-fluoro-2-phenyl-2-((S)-pyrrolidin-2-yl)indolin-4-yl)-3-fluoro-4-((S)-2-hydroxypropoxy)-N-methylbenzamide], the results for the IC50 (in test [1]; in the test with MKN-45/Ubc-luc cells [2]; in test [5]) were 144 nM, more than 20 µM and 15 nM, respectively. Also, the GI50 with MKN-45/Ubc-luc cells [3] is more than 20000 nM; in test [4], 104 nM.
Take `CNC(=O)c1cnc(OCCO)c(F)c1-c1c(Cl)c(F)cc2c1C[C@](c1ccccc1)([C@@H]1CCCN1)N2` (atropisomer, axis not shown) [Example 173, 4-((2S,4S)-5-Chloro-6-fluoro-2-phenyl-2-((S)-pyrrolidin-2-yl)indolin-4-yl)-5-fluoro-6-(2-hydroxyethoxy)-N-methylnicotinamide]: the IC50 in test [1] was 187 nM; in the test with MKN-45/Ubc-luc cells [2], more than 20 µM; in test [5] it was 14 nM. For the same molecule, the GI50 was more than 20000 nM in the test with MKN-45/Ubc-luc cells [3] and 158 nM in test [4].
